Measurements from paper PMC3527569, “Anti-Inflammatory and Vasoprotective Activity of a Retroviral-Derived Peptide, Homologous to Human Endogenous Retroviruses: Endothelial Cell Effects” (PLoS ONE, 2012).
pIC50: −log10 of the molar value. Where a SMILES comes first, the peptide text is derived from it. Bridges are numbered along the chain shown (N, C = ends). Roman numbers before positions name the chains, in order.

Experiments:
[1] = system: nitrate in HUVEC supernatants; test: NO release (nitrate as nitrite) from HUVEC; format: cell-based, human; conditions: 50 µM peptide
Protocol: HUVEC were grown to 80–90% confluence in 12-well tissue culture plates using defined media provided by Cambrex and supplemented with 10% FBS. Triplicate wells were incubated with either media alone or media containing 50 µM of the indicated peptide. Supernatant samples were removed from each well at 6 h and 24 h post peptide addition and assayed for NO release as measured by the presence of nitrate (converted to nitrite) using a kit supplied by Oxford Biomedical Research (Rochester Hill, MI) according to the manufacturer's instructions.

[2] = system: IL-6; test: LPS-induced IL-6 release by human PBMC (sandwich ELISA); format: cell-based; conditions: 18-24 h, peptide 10 nM-100 µM in triplicate, IC50 estimated from graph
Protocol: (§1) Cytokine Assays: One-hundred µL of PBMC (2 x 10^6/ml in Complete Medium) were added to each well of a flat-bottom, 96-well tissue culture plate. To each well was then added 50 µL of media or peptide (4X desired final concentration; in Complete Medium) and 50 µL of lipopolysaccharide (LPS; S. typhosa; Sigma, St. Louis, MO; 400 ng/ml Complete Medium). Each peptide was tested in triplicate at 5 log10 concentrations ranging from 100 µM to 10 nM. Plates were incubate 18-24 h at 37°C in 5% humidified CO2. Plates were then centrifuged and 100 µL of supernatant removed from each well and stored frozen at -80°C until assayed. Cytokines (TNF-α, IL-1β, IL-6, GM-CSF) were measured by sandwich ELISA assays (R & D Systems; Minneapolis, MN) using the manufacturer’s instructions. The released cytokine concentration was determined from a standard curve using recombinant cytokine provided with each kit.

[3] = system: GM-CSF; test: LPS-induced GM-CSF release by human PBMC (sandwich ELISA); format: cell-based; conditions: 18-24 h, peptide 10 nM-100 µM in triplicate, IC50 estimated from graph
Protocol: as §1

[4] = system: TNF-α; test: LPS-induced TNF-α release by human PBMC (sandwich ELISA); format: cell-based; conditions: human PBMC + LPS (S. typhosa), 18-24 h, 37°C, peptide 10 nM-100 µM in triplicate, IC50 estimated from graph, representative set, one volunteer
Protocol: as §1

[5] = system: Adhesion; test: Monocyte adhesion to endothelial cells (HUVEC); format: cell-based, human; conditions: calcein-labelled PBMC on HUVEC, TNF-α stimulated; peptide 10 nM-100 µM
Protocol: Monocyte Adhesion to Endothelial Cells: To each well of a 96-well tissue culture plate was added 100 µL of HUVEC at 2 x 10^4 cells/ml. The plates were then incubated 48 h at 37°C and 5% CO2. PBMC, prepared as above, were washed once in serum-free RPMI-1640 medium. Calcein-AM (Sigma; St. Louis, MO) was added to a final concentration of 10 µg/ml, the cells incubated 30 min at 37°C, and then washed once with serum-free RPMI-1640. The cells were then washed an additional time with Complete Medium and resuspended to a concentration of 3 x 10^6/ml in Complete Medium. For each concentration of compound to be tested, 200 µL of labeled PBMC was incubated with 200 µL of test compound (2X desired final concentration) in polypropylene tubes. Similarly, for each concentration of compound to be tested, 50 µL of medium was removed from a well of the plated HUVEC and 50 µL of medium containing the test compound (2X desired final concentration) was added. Both tubes and plates were incubated 1 h at 37°C in 5% CO2. All peptides were tested at log10 concentrations of 10 nM to 100 µM. […] The plate was then read on a fluorescent spectrophotometer with filter settings of λ = 485exc/530emi. […] The plate was blotted to remove any media and read again on the fluorescent spectrophotometer. Percent of Maximum Adhesion (% Max. Adh.) was calculated as: […]

[6] = system: LTB4; test: Zymosan-induced LTB4 release by adherent human PBMC; format: cell-based; conditions: 1 h peptide then Zymosan 90 min, IC50 estimated from graph
Protocol: (§2) Platelet Activating Factor (PAF) and Leukotriene B4 (LTB4) Assays: PBMC were prepared as described above and adjusted to 3.3 x 10^6 cells/ml in RPMI-1640 medium containing 5 mg/ml HSA (Sigma, St. Louis, MO). To each well of a 48-well tissue culture plate was added 0.3 ml of cell suspension. The plate was incubated for 2 h at 37°C and 5% CO2 to allow cells to adhere. The wells were then washed 3X with HHBSS (Hank’s Balanced Salt Solution with 5 mg/ml HSA) at room temperature (RT). One-hundred seventy-five µL of HHBSS or test material in HHBSS was then added to each well and the plates incubated for 1 h at 37°C and 5% CO2. Samples were set up in quadruplicate. To each of duplicate wells for each sample was then added 175 µL of HHBSS or HHBSS containing 600 µg/ml of Zymosan (Sigma, St. Louis, MO). The plates were then incubated for 90 min at 37°C and 5% CO2. The plates were centrifuged and supernatants removed for quantitation of PAF or LTB4 according to the kit manufacturer’s (Amersham Pharmacia; Piscataway, NJ) instructions. The released PAF or LTB4 concentration was determined from a standard curve using standards provided with each kit.

[7] = system: Platelet Aggregation; test: Platelet aggregation; format: cell-based, human; conditions: for pIC50: human blood cells
[8] = system: PAF; test: Zymosan-induced PAF release by adherent human PBMC; format: cell-based; conditions: 1 h peptide then Zymosan 90 min, IC50 estimated from graph
Protocol: as §2

[9] = system: TF; test: Monocyte-associated tissue factor (TF) ELISA; format: cell-based; conditions: human PBMC cultured 18-24 h with LPS; cell lysate, IMMUBIND Tissue Factor ELISA; IC50 estimated from graph
Protocol: Tissue Factor (TF): Monocyte-associated TF was quantitated in the following manner. PBMC were cultured in 48-well tissue culture plates as described below for PAF and LTB4 assays. At the end of the culture period (18-24 h) the supernatants were removed and stored frozen for cytokine assays. The wells of the plates were washed once with PBS and to each well was added 100 µL of Triton X-100 (10% [v/v] in H2O; Sigma, St. Louis, MO). The plates were placed on an orbital shaker for 12-18 h at 4°C and a speed of ~ 125 rpm. To each well was added 900 µL of sample buffer (10 mM PBS, pH 7.4, with 1% [w/v] BSA). The contents of each well were mixed well and removed for quantitation of TF using an IMMUBIND® Tissue Factor ELISA kit (American Diagnostica; Stamford, CT) according to the manufacturer’s instructions. Samples were diluted 1:10 in sample buffer prior to being assayed.

CC(C)C[C@H](NC(=O)CNC(=O)CNC(=O)[C@H](CCC(=O)O)NC(=O)[C@H](CCCCN)NC(=O)[C@H](CC(C)C)NC(=O)[C@H](Cc1ccccc1)NC(=O)[C@H](CC(C)C)NC(=O)[C@H](CC(C)C)NC(=O)[C@H](CC(=O)O)NC(=O)[C@H](CC(C)C)NC(=O)CNC(=O)[C@H](CCCNC(=N)N)NC(=O)[C@H](CCCNC(=N)N)NC(=O)[C@H](CC(N)=O)NC(=O)[C@H](CCC(N)=O)NC(=O)[C@@H](N)CC(C)C)C(=O)N[C@@H](CSSC[C@H](NC(=O)[C@H](CC(C)C)NC(=O)CNC(=O)CNC(=O)[C@H](CCC(=O)O)NC(=O)[C@H](CCCCN)NC(=O)[C@H](CC(C)C)NC(=O)[C@H](Cc1ccccc1)NC(=O)[C@H](CC(C)C)NC(=O)[C@H](CC(C)C)NC(=O)[C@H](CC(=O)O)NC(=O)[C@H](CC(C)C)NC(=O)CNC(=O)[C@H](CCCNC(=N)N)NC(=O)[C@H](CCCNC(=N)N)NC(=O)[C@H](CC(N)=O)NC(=O)[C@H](CCC(N)=O)NC(=O)[C@@H](N)CC(C)C)C(=O)O)C(=O)O [MN10021] (I: H-LQNRRGLDLLFLKEGGLC-OH / II: H-LQNRRGLDLLFLKEGGLC-OH; disulfide I:18-II:18)
nitrate release (as measured by nitrite assay) from HUVEC ([1]; 6 h or ON): induced nitrate release
pIC50 [2]: < 4.00
pIC50 [3]: 5.10
pIC50 [4]: 5.21
pIC50 [5]: < 4.00
pIC50 [6]: 5.21
pIC50 [7]: 5.30
effect on ADP- and epinephrine-induced human platelet aggregation ([7]; in vitro, data not shown): inhibit
pIC50 [8]: 4.90
pIC50 [9]: 4.90

H-LGGEKLFLLDGRNQLC-OH (disulfide (positions not given here)) [MN20050]
nitrate release, percent of MN10021 ([1]; 6 h and ON incubations): ≤ 25%
pIC50 [2]: < 4.00
pIC50 [3]: < 4.00
pIC50 [4]: < 4.00
pIC50 [5]: < 4.00
pIC50 [6]: < 4.00
pIC50 [7]: < 4.00
pIC50 [8]: < 4.00
pIC50 [9]: < 4.00
